A value given as a limit tells only on which side of the number the result lay.

In this assay the test system is bacteria on a surface, such as a person's skin. Put plainly: Nitric oxide dose required to kill bacteria on a surface. To be noted: ppm of nitric oxide.

For `[N]=O` [nitric oxide], the “dose required to kill bacteria on a surface” value is at least 320 ppm.

The values above are taken from patent US11638689B2, “Deep topical systemic nitric oxide therapy apparatus and method” (SYK Technologies LLC, priority 2013, dated 2023).
